Entries after “also recorded” stand apart in the source; their conditions may differ.
How the values were obtained:
TET2 = TET2 expression in GT1-7 cells; assay type: cell-based, mouse; conditions: 10 μM, 6 h
Experimental: For Bobcat339 treatment (FIG. 15A and FIG. 15B), GT1-7 cells grown in 24-well plates at 2×10^5 cells/well were incubated with vehicle or Bobcat339 at a final concentration of 10 μM for 6 h, followed by RNA and protein extractions. For TET3 protein stability assay (FIG. 15B), GT1-7 cells in 24-well plates at 2×10^5 cells/well were incubated with vehicle or Bobcat339 at a final concentration of 10 μM for 3 hours, followed by addition of cycloheximide (CHX, Cell Signaling, 2112) at a final concentration of […] in the presence of 10 μM of Bobcat339. Proteins were harvested at 0, 1, 2, and 3 hours after addition of CHX. For TET3 expression restoration experiments (FIG. 15C and FIG. 15D), GT1-7 or SH-SY5Y cells seeded in 24-well plates at 2×10^5 cells/well were infected with Ad-GFP or Ad-TET3 at 4000 gc/cell. Following 16 h of infection, vehicle or Bobcat339 were added at a final concentration of 10 μM. Protein and RNA were isolated 48 h later and analyzed.
GT1-7 and SH-SY5Y cells in 24-well plates were collected by manual scraping in 2×SDS-sample buffer containing 1× Phosphatase inhibitor cocktail (Thermo, 78427) and 1× Protease inhibitor cocktail (Thermo, 78438), followed by heating at 100 °C for 5 min with occasional vortexing. […]

TET3 = TET3 protein stability (cycloheximide) in RAW 264.7 cells; assay type: cell-based, mouse; conditions: 10 μM, with cycloheximide
Experimental: For TET3 protein stability assay, cells in 24-well plates were incubated with vehicle or Bobcat339 at a final concentration of 10 μM for 3 hours, followed by addition of cycloheximide (CHX, Cell Signaling, 2112) at a final concentration of 50 μg/mL in the presence of 10 μM of Bobcat339. Proteins were harvested at 0, 1, 2, and 3 hours after addition of CHX.

RAW 264.7 cells = test: TUNEL assay in RAW 264.7 cells; assay type: cell-based, mouse; conditions: RAW 264.7, 10 μM, 48 h
Experimental: For TET3 expression restoration experiments, cells seeded in 24-well plates were infected with Ad-GFP or Ad-TET3 at 4000 gc/cell. Following 16 h of infection, vehicle or Bobcat339 were added at a final concentration of 10 μM. Protein and RNA were isolated 48 hours later and analyzed.
These were performed using the In Situ Cell Death Detection Kit (Sigma Aldrich, 12156792910). Briefly, cells were fixed with 4% paraformaldehyde in PBS for 1 h at RT and rinsed with PBS, followed by permeabilization with 0.1% Triton X-100 in 0.1% sodium citrate for 2 min on ice. TUNEL reaction mixture was added and incubation was carried out at 37 °C for 60 min. DAPI was added to counter-stain the cells for 1 min. The slides were coverslipped and scoped using a Keyence BZ-X700 fluorescence microscope.

[1] = test system: Lewis lung carcinoma (LLC); test: Syngeneic LLC murine model of lung cancer; assay type: in vivo, mouse; conditions: for body weight gain: day 16 vs. day 0
Experimental: Metastatic lung cancer was established by tail vein injection of Lewis lung carcinoma (LLC) (a mouse NSCLC cell line, Bertram et al., 1980, Cancer Lett, 11:63-73) cells into immunocompetent mice (FIG. 30A). Intravenous dosing of Bobcat339 (or vehicle) at 2.5 mg/kg every four days was initiated three days after tumor cell injection. The lungs were collected at day 20 from sacrificed mice. On day 16 as compared to day 0, mice in the Veh group lost ~5% of body weight, whereas those in the Bobcat339 group gained ~6% of body weight, which would be expected for a normal female mouse during this age period (FIG. 30B). […] Severe weight loss is frequently seen in patients with NSCLC, which is also associated with systemic inflammation and cancer cachexia (Staal-van den Brekel et al., 1995, J Clin Oncol, 13:2600-2605; Fredrix et al., 1991, Cancer, 68:1616-1621; Jatoi et al., 2001, Ann Thorac Surg, 72:348-351; Ulmann et al., 2019, Ann Nutr Metab, 75:223-230; Jouinot et al., 2020, Clin Nutr, 39:1893-1899).
Metastatic lung cancer was established by tail vein injection of Lewis lung carcinoma (LLC) (a mouse NSCLC cell line) (Bertram et al., 1980, Cancer Lett, 11:63-73) cells into immunocompetent mice (FIG. 29). Intravenous dosing of Bobcat339 (or vehicle) at 3 mg/kg every four days was initiated three days after tumor cell injection. The lungs were collected at day 20 from sacrificed mice.
LLC cells (2.5×10^5 cells/mouse) were injected into the tail vein of female C57BL/6J mice of 8-weeks old. Mice were randomly divided into vehicle (n=5) and Bobcat339 (n=5) groups. Three days after tumor cell injection, the vehicle group mice received tail vein injection of DMSO and the Bobcat339 group with Bobcat339 at the dose of 2.5 or 3 mg/kg body weight every four days. The animals were sacrificed 20 days after tumor cell injection and lungs were isolated and weighed. The whole lung was fixed in 4% paraformaldehyde overnight at 4 °C and embedded in paraffin for histological analysis and IHC. A second cohort of mice (n=5 in each group) treated as above were used for survival studies using moribund as an experimental endpoint.

[2] = 2.5 mg/kg i.v. every four days, day 20

For Nc1nc(=O)n(-c2cccc(-c3ccccc3)c2)cc1Cl [Bobcat339, 4-Amino-1-[1,1′-biphenyl]-3-yl-5-chloro-2(1H)-pyrimidinone], the TET2 expression (TET2) was “did not affect TET2 expression”, the TET3 protein stability (TET3) was “less stable” and the “half-life of TET3” value (TET3; RAW) was ~ 80 minutes. The “half-life of TET3” value (TET3; macrophages) was ~ 80 min, the “apoptosis (TUNEL)” value (RAW 264.7 cells) was “induced apoptosis; also recorded: a significant increase in apoptotic cell death” and the “apoptosis (TUNEL)” value (RAW 264.7 cells; with Ad-TET3) was “reversed by overexpression of TET3; also recorded: not seen when TET3 was overexpressed”. The food intake ([1]; 2.5 mg/kg i.v. every four days) was “no difference in food intake”, the body weight gain ([1]; 2.5 mg/kg i.v. every four days) was ~ 6% and the “LLC metastases in lungs” value [1, 2] was “Fewer LLC metastases”. For the same compound, the lung weight [1, 2] was “significantly less”, the “LLC metastases in lungs” value ([1]; 3 mg/kg i.v. every four days) was “fewer LLC metastases” and the food intake ([1]; 3 mg/kg i.v. every four days) was “no difference in food intake”. For the same compound, the lung weight ([1]; 3 mg/kg i.v. every four days) was “significantly less”, the survival rate ([1]; 3 mg/kg i.v. every four days) was “an increased survival rate” and the body weight gain ([1]; 3 mg/kg i.v. every four days) was ~ 6%.

Source: US20260355199A1, “COMPOSITIONS AND METHODS FOR TREATING OR PREVENTING NONALCOHOLIC STEATOHEPATITIS (NASH), ANOREXIA, DEPRESSION, ENDOMETRIOSIS, AND OTHER DISEASES OR DISORDERS” (priority 2022, published 2026)
